Experimental data from patent US20090123536A1, “Oral Pharmaceutical Form of Losartan” (Flamel Technologies, S.A., priority 2005, published 2009).
≈ marks a conversion by molar mass, not a printed value.

Experiment: Solubility of losartan as a function of pH
Format: physicochemical
Conditions: water
Text: It is thus conceived that for losartan, whose solubility depends greatly on the gastric pH (cf. table below), the solubilization, and thus ultimately the plasmatic concentration profile, is subject to great variation from one individual to another and, for the same individual, from one day to another.

CCCCc1nc(Cl)c(CO)n1Cc1ccc(-c2ccccc2-c2nn[nH]n2)cc1 [losartan, {2-butyl-4-chloro-1-[4-[2-(1H-tetrazol-5-yl)phenyl]benzyl]-1H-imidazol-5-yl}methanol]
solubility (aqueous buffer, pH 3.0, 37° C.): 100 µg/mL (≈ 0.236 mM) | solubility (aqueous buffer, pH 4.5, 37° C.): 120 µg/mL (≈ 0.284 mM) | solubility (aqueous buffer, pH 5.0, 37° C.): 300 µg/mL (≈ 0.709 mM) | solubility (aqueous buffer, pH 6.0, 37° C.): 1200 µg/mL (≈ 2.84 mM) | solubility (aqueous buffer, pH 6.8, 37° C.): 10000 µg/mL (≈ 23.6 mM) | solubility (aqueous buffer, pH 8.5, 37° C.): > 550000 µg/mL | solubility (simulated gastric fluid, pH 1.4, 37° C.): 1000 µg/mL (≈ 2.36 mM) | solubility (simulated gastric fluid, pH 2.0, 37° C.): 600 µg/mL (≈ 1.42 mM)
